This experiment concerns the target T1, human neutrophil elastase (HNE) (Homo sapiens, UniProt P08246).
T1 construct: gene ELANE
T1 sequence (P08246 30-247): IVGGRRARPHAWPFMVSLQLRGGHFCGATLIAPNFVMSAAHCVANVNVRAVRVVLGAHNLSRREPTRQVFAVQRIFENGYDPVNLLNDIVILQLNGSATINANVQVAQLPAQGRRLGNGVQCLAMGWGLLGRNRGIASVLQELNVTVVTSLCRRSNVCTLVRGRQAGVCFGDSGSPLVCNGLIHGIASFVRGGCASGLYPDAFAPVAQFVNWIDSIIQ
The experiment in a line: chromogenic elastase assay (MeOSuc-AAPV-pNA, […] nm), dose-response. The experiment is classed as biochemical.

`O=C(/C=C/c1ccc(O)c(O)c1)O[C@@H]1C[C@](O)(C(=O)O)C[C@@H](O)[C@H]1O` [Cha, chlorogenic acid]: the half-maximal inhibitory concentration (IC50) worked out at 203 µM.
The value for `O=C(/C=C/c1ccc(O)c(O)c1)O[C@@H]1C[C@](O)(C(=O)O)C[C@@H](OC(=O)/C=C/c2ccc(O)c(O)c2)[C@H]1O` [Iso A, isochlorogenic acid A] was 171 µM.

(Values after paper PMC12250763, “Synergistic and Antagonistic Mechanisms of Arctium lappa L. Polyphenols on Human Neutrophil Elastase Inhibition: Insights from Molecular Docking and Enzymatic Kinetics” (Molecules, 2025).)
